According to patent US11684599B2, “Very-long-chain polyunsaturated fatty acids, elovanoid hydroxylated derivatives, and methods of use” (Board of Supervisors of Louisiana State University and …, priority 2017, dated 2023):

How the values were obtained:
[1] = system: cerebral-cortical mixed neuronal cells and hippocampal neurons; assay: NMDA excitotoxicity of neurons in culture, cell viability; type: cell-based, rat
From the text: Primary cultures of cortical and hippocampal neurons were harvested from 18-day-old embryos (E18) taken from timed-pregnant, two-month-old Sprague-Dawley (SD) rats (Charles River Lab., Wilmington, Mass.). Briefly, timed-pregnant SD rats were euthanized and embryos were collected in sterile conditions. Embryonic brains were dissected out by forceps on ice and placed in a petri dish containing ice-cold Hank's Balanced Salt Solution (HBSS) (GIBCO). Meninges were removed under a dissecting microscope and cortical tissues were chopped into small pieces with micro-spring scissors. These tissues were transferred to 15 ml tubes containing trypsin-EDTA (0.025% in HBSS) and DNase I. The tubes were incubated in 37° C. chamber for 15 mins and were agitated every 5 mins. After stopping the trypsinization with 5 ml 10% FBS, these tissues were triturated 15 times with a fire polished Pasteur pipet. Cell clumps were left to settle for 2 mins and the supernatant was transferred to a 15 ml Eppendorf tube. The supernatant was filtered through a 70 μm pore-sized filter (Corning cell strainer) and centrifuged for 5 mins at 1000 rpm. The cells were then resuspended in Neurobasal medium (GIBCO) containing 2% B27 (GIBCO) and 2% N2 (GIBCO) supplements, along with 0.5 mM glutamine, 50 U/ml penicillin/streptomycin.
Cells were counted using a Neubauer hemocytometer. 1×10^6 cells were seeded on poly-D-lysine-coated 12 well cell culture dish (CORNING) and cultured in incubator (37° C., 5% CO2). Culture medium was first replaced after 24 h, then half of the medium was replaced with fresh medium every three days. As a result, approximately, 90% purity of neurons was obtained as determined by class-III-β tubulin, GFAP and Hoechst 33258 staining. Cells were maintained in culture for about 2 weeks until they were exposed to uncompensated oxidative stress, OGD, or NMDA excitotoxicity.
After 90 mins of OGD exposure, cells were returned to the original medium (Neurobasal medium (GIBCO) containing 2% B27 (GIBCO) and 2% N2 (GIBCO) supplements, along with 0.5 mM glutamine, 50 U/ml penicillin/streptomycin) and placed in a normoxic chamber (37° C., 5% CO2) for 2 h. Then the medium was changed with medium containing either ELV-N32 or ELV-N34 [500 nM] and maintained in a normoxic chamber (37° C., 5% CO2) for 12 h, after which cells were sampled and assayed for cell viability using different methods as previously described (25-28). Cerebral cortical mixed neuronal cells or hippocampal cells in culture were exposed to either NMDA or uncompensated oxidative stress (UOS) for 12 h by addition of either NMDA (25 μM, 50 μM, or 100 μM) concentration or by the addition of TNFα (10 ng/mL) and H2O2 (50 μM, 100 μM, or 200 μM). Cell viability and neuroprotection in the presence of ELV-N32, ELV-N34, 32:6, or 34:6 were assayed after 12 h.
Cells were washed with 1× Dulbecco's Phosphate Buffered Saline (DPBS) containing no calcium or magnesium (GIBCO) and fixed for 10 mins using ice-cold 4% paraformaldehyde (PFA) followed by 15 mins incubation in 100% methanol. Cells were washed with 1× Phosphate Buffered Saline (PBS) pH 7.4 (GIBCO) and incubated in PBS containing 20 μM Hoechst 33258 (Molecular Probes) for 20 mins. Cells were then washed 3 times with 1×PBS and stored in 1×PBS at 4° C. until they were imaged for microscopy.
One 4×4 tile mosaic was acquired from the center of each well using a Zeiss 510 Meta laser confocal microscope and LSM 510 Meta software. Images were imported into image analysis software ImageJ (National Institutes of Health, Bethesda, Md.) and batch processed using custom macros. An Otsu auto threshold was applied to each image of Hoechst-stained nuclei, and the area of each detected object was recorded. Objects with areas <10 μm^2 were excluded from analysis. To estimate percentage non-pyknotic nuclei, a size cutoff value was chosen above which objects were assumed to be non-pyknotic. […]

[2] = system: ARPE-19 cells under UOS; assay: Western blot of pro-survival and pro-apoptotic proteins in RPE cells under UOS; type: cell-based, human; details: for Prohibitin (type-1) expression: sodium salts and methyl ester forms, concentration-dependent 100-200 nM; for pro-apoptotic Bax / pro-apoptotic Bid / pro-apoptotic Bim: sodium salts or methyl esters
Method: ARPE19 cells at 75-80% confluence (72 h growth in DMEM/F12+10% FBS) in 6-well plates were serum-starved for 8 h before exposure. The serum-starved cells were treated with TNF-α (Sigma-Aldrich, St. Louis, Mo.) (10 ng/ml) and H2O2 (600 μM) to induce oxidative stress and challenged with increasing concentrations (50-500 nM) of VLC-PUFA (C32:6n3 and C34:6n3) simultaneously with oxidative stress for 16 h (apoptosis) and 6 h (Western-blot) before detection of apoptosis and harvesting for protein analysis. In some experiments, DHA at a concentration of 100 nM and 15-LOX-1 inhibitor PD146176 at a concentration of 1 μM was added to treat the RPE cells under stress. Cell extracts were made and protein concentrations adjusted by Bio-Rad (Hercules, Calif.) protein reagent and used for Western blot analysis.
Bcl-2 family proteins, SIRT1 and Proinhibitin (type-1), and Iduna proteins were analyze by Western blot analysis. In brief, 20-25 μg equivalents of each cell extracts were subject to electrophoresis on a 4-12% gel (Promega) at 125 V for 2 h. The proteins were transferred to nitrocellulose membrane by I-blot transfer apparatus. The membranes were subjected to treatment with primary antibodies specific for Bcl-2, Bcl-xL, Bax, Bid, Bim, SIRT1 and Prohibitin (type-1) (Santa Cruz Biotechnology) and Iduna antibody (Neuro-Mab Lab, UCLA, Los Angeles, Calif.) overnight at 4° C. and probed for 45 mins with secondary antibody, goat anti-mouse Ig:horseradish peroxidase, and horseradish peroxidase-conjugated anti-biotin antibody, and then proteins were evaluated by using an ECL kit (Amersham).

[3] = system: ARPE-19 cells; assay: UOS-induced apoptosis in ARPE-19 cells (Hoechst-positive pyknotic cells); type: cell-based, human; details: 1 μM, RPE cells undergoing UOS
Method: FIGS. 6A and 6B depicts immunostaining of primary human RPE cells using specific markers ZO-1 (Zona occludens-1), RPE65, MITF (Micro-ophtalmia-associated Transcription Factor) and β-catenin, as well as light microscopy depicting primary human RPE cell morphology at different passages in culture. ARPE-19 cells were grown and maintained in T-75 mM flasks in DMEM F-12 medium containing 10% FBS and incubated at 37° C. with a constant supply of 5% CO2. Cells at 75-80% confluence (72 h growth in DMEM/F12+10% FBS) in 6-well plates were serum-starved for 8 h before exposure. The serum-starved cells were treated with TNF-α (Sigma-Aldrich, St. Louis, Mo.) (10 ng/ml) and H2O2 (600 μM) to induce oxidative stress and challenged with increasing concentrations (50-500 nM) of VLC-PUFA (C32:6n3 and C34:6n3) simultaneously with oxidative stress for 16 h (apoptosis) and 6 h (Western-blot) before detection of apoptosis and harvesting for protein analysis. In some experiments, DHA at a concentration of 100 nM and 15-LOX-1 inhibitor PD146176 at a concentration of 1 μM was added to treat the RPE cells under stress. Cell extracts were made and protein concentrations adjusted by Bio-Rad (Hercules, Calif.) protein reagent and used for Western blot analysis. To assess cell death, hRPE and ARPE-19 cells were fixed with methanol for 15 mins, washed with 1×PBS then loaded with 2 μM Hoechst dissolved in a Locke's solution (Promega) and incubated for another 15 mins before imaging. Cells were then viewed by using a Zeiss LSM 510 confocal microscope under UV fluorescence. Images were recorded and cell apoptosis was assessed by using an automated unbiased method.

[4] = system: primary human RPE cells; assay: UOS-induced cell death in primary human RPE cells (Hoechst staining); type: cell-based; details: NPD1 200 nM, 16 h; H2O2 (800 μM) alone 50% cell death
Method: Primary human retinal pigment epithelia (RPE) cells, prepared from donor eyes without eye pathology, were plated and transformed after passage eight. Cells were cultured in T75 flasks in MEM medium containing 10% FBS, 5% NCS, MEM-NEAA (ThermoFisher Scientific, Waltham, Mass.), 1× penicillin/streptomycin and 10 ng/ml FGF at 37° C. 5% CO2, 99% relative humidity for 24-48 h followed by a 24-h incubation with 10 μM free 32:6 and 34:6 fatty acid mixture.
For cell viability assay experiments hRPE cells were treated concomitantly with NPD1 (200 nM), 32-6, 34-6 (3 μM each) fatty acids or both 32-6 and 34-6 simultaneously. The hRPE medium was supplemented with 3 μM of 32-6 and 34-6 for the entire duration of the experiment. 15 lox-1 inhibitor (10 μM) was added to the cells 1 hour prior the OS induction and kept throughout the experiment. Cells were fixed with 4% PFA and stained with Hoescht.
To assess cell death, hRPE and ARPE-19 cells were fixed with methanol for 15 mins, washed with 1×PBS then loaded with 2 μM Hoechst dissolved in a Locke's solution (Promega) and incubated for another 15 mins before imaging. Cells were then viewed by using a Zeiss LSM 510 confocal microscope under UV fluorescence. Images were recorded and cell apoptosis was assessed by using an automated unbiased method.

| Molecule | Prohibitin (type-1) expression [2] | pro-apoptotic Bax [2] | pro-apoptotic Bid [2] | pro-apoptotic Bim [2] | also measured |
| --- | --- | --- | --- | --- | --- |
| MK801 maleate [reference compound] |  |  |  |  | NMDA excitotoxicity ([1]; 10 μM): overcome |
| CC/C=C\C[C@H](O)\C=C/C=C/C=C/[C@H](O)C/C=C\C/C=C\CCCCCCCCCCCCC(=O)O [ELV-N32, (14Z,17Z,20R,21E,23E,25Z,27S,29Z)-20,27-dihydroxydo-triaconta-14,17,21,23,25,29-hexaenoic acid] | upregulated | decreased | decreased | decreased |  |
| c1ccc2c(c1)SCc1c-2[nH]c2ccccc12 [PD146176, reference compound] |  |  |  |  | effect of 15-LOX-1 inhibitor on ELV-induced upregulation ([2]; 1 μM, ARPE-19 cells undergoing UOS): blocked these effects; effect of 15-LOX-1 inhibitor on ELV-mediated inhibition of apoptosis [3]: compensate for ELV-mediated inhibition of apoptosis |
| CC/C=C\C[C@H](O)\C=C/C=C/C=C/[C@H](O)C/C=C\C/C=C\CCCCCCCCCCCCCCC(=O)O [ELV-N34, (16Z,19Z,22R,23E,25E,27Z,29S,31Z)-22,29-dihydroxytetra-triaconta-16,19,23,25,27,31-hexaenoic acid] | upregulated | decreased | decreased | decreased | NMDA-induced neuronal death ([1]; ELV (Na or Me) 200 nM or 500 nM added along with NMDA 25, 50 or 100 μM, 12 h): compensated for |
| CC/C=C\C[C@H](O)\C=C/C=C/C=C/[C@H](O)C/C=C\C/C=C\CCC(=O)O [NPD1, 10R,17S-dihydroxy-docosa-4Z,7Z,11E,13E,15Z,19Z-hexaenoic acid] |  |  |  |  | apoptosis [4]: 11% |
